Assay: xn = mol fraction of the nth substance listed
Conditions: Liquid, Custom Made Vibrating Tube Densimeter

C=C1CC[C@H]2C[C@@H]1C2(C)C [(1S,5S)-6,6-dimethyl-2-methylenebicyclo[3.1.1]heptane] + C=C(C)[C@H]1CC=C(C)CC1
mass density [kg/m3]
Conditions	x2 = 0	x2 = 0.11	x2 = 0.2008	x2 = 0.289	x2 = 0.3961	x2 = 0.4938	x2 = 0.5906	x2 = 0.6984	x2 = 0.7993	x2 = 0.9022
283.15 K, 20000 kPa	891.3	888.1	885.4	882.8	879.6	876.8	873.9	870.9	868	864.5
283.15 K, 25000 kPa	894.2	891	888.3	885.7	882.4	879.6	876.8	873.7	870.8	867.8
283.15 K, 30000 kPa	897	893.9	891	888.4	885.2	882.5	879.7	876.5	873.6	870.4
283.15 K, 35000 kPa	899.9	896.7	893.8	891.2	887.9	885.2	882.4	879.3	876.5	873.3
283.15 K, 40000 kPa	902.6	899.3	896.3	894	890.6	887.8	885.1	881.9	879.2	876
298.15 K, 20000 kPa	880.2	877	874.1	871.8	868.7	865.8	863	859.9	857.2	854.3
298.15 K, 25000 kPa	883.3	880.1	877.2	874.9	871.8	868.9	866.2	863.1	860.2	857.3
298.15 K, 30000 kPa	886.3	883.1	880.3	877.9	874.8	–	–	–	–	–

Reference: the NIST ThermoML archive (doi:10.1016/j.jct.2011.12.013)
